Experimental data from US7968107B2, “Oil-based suspension concentrates” (Bayer Cropscience AG, priority 2004, dated 2011).

Test: Penetrants at the level of the cuticle (desorption method, tracer mobility with and without additive)
Details: mobility of radiolabelled weak organic acid tracer in peach leaf cuticle; receptor buffer pH 7
From the text: Additives which act as penetrants at the level of the cuticle may be referred to below as accelerator additives (cf. Schönherr and Baur, 1994, Pesticide Science 42, 185-208). The feature of accelerator additives is their ability to penetrate from the aqueous spray liquor and/or from the spray covering into the cuticle and thereby to increase the mobility of active substances in the cuticle. Other additives such as polyethylene glycol, in contrast, act only in the spray covering (via the liquid phase) or act only as wetting agents, such as sodium dodecyl sulphate, for example.
This test determines the influence of additives on the penetration properties of other substances at the level of the cuticle. The mobility of the test substance in the cuticle is measured with and without an additive, by way of a desorption method. The method is published in detail in the literature (Baur et al., 1997, Pesticide Science, 51, 131-152) and only the principles and any deviations are described below.
As a test substance with the function of a tracer a selection was made here of a radiolabelled weak organic acid. Plant material used comprised the enzymatically isolated leaf cuticles of the top face of peach leaves from outdoor trees. The cuticles were installed in specially manufactured stainless steel diffusion cells. The tracer, in a citrate buffer at a pH of 3 in the dissolved state, was applied to the side originally facing the inside of the leaf. This inner side readily takes up the small radioactive amount of the tracer in the undissociated acid form. Subsequently this inner side was covered and maintained at 100% atmospheric humidity. The morphological outer side of the leaf cuticle, normally exposed to the air, was then contacted with a buffer (pH 7), with the receptor solution, and the desorption was started. The penetrated acid form of the test substance is dissociated by the receptor and the desorption follows first-order kinetics. The desorption constant is proportional to the mobility of the tracer in the cuticle. […]

Substance	Average effect (ratio of desorption slopes with additive to without additive)
CH3—(CH2)8—O—(-EO—)8—(—BO—)2—CH3 [Ie-2]	89.1
CH3—(CH2)10—O—(-EO—)6—(—BO—)2—CH3 [Ie-1]	78.4
isotridecyl-(6) ethoxylate [Isotridecyl-(6) ethoxylate, open, reference compound]	42.3
